The values below come from the NIST ThermoML archive (doi:10.1016/j.fluid.2015.09.019).

SMILES strings stand for the structures. Numbers after ± are expanded uncertainties.

Series [1] in a line: Molar enthalpy of transition or fusion. The note with it: Crystal; DSC.
The conditions of series [2]: Crystal; DTA.

As for `CC1=CC(=O)c2ccccc2C1=O` [2-methyl-1,4-naphthalenedione], the “Molar enthalpy of transition or fusion” value in series [1] was 4.86 ± 0.22 kcal/mol. Besides, in series [2], the Normal melting temperature was found to be 107.00 ± 1.1 °C.
